Where “and” joins values, the source holds several entries; their conditions need not be identical. Equal entries are not always repeated.
Assays:
Caspase-3 = Caspase-3 activation assay in MCF-7; assay type: cell-based, human; details: for Caspase-3 Fold change: MCF-7, versus untreated control; for Caspase-3 Conc.: MCF-7 cancer cell line
Method: Compounds 8g and 8h were evaluated as caspase-3, 8 and Bax activators and as down-regulator of the anti-apoptotic protein Bcl2 against the MCF-7 breast cancer cell line.[40] Appendix A ^† contains more details.
Compounds 8g and 8h were evaluated as caspase-3 activators against the MCF-7 breast cancer cell line,[40] with results presented in Table 3. […] The compounds 8g and 8h increased the concentration of caspase-3 protein in the MCF-7 cancer cell line, showing levels that were 11 and 10 times higher than the untreated control and higher than staurosporine. […]
cancer cells, commercially available ELISA kits (Invitrogen) were used according to manufacturer’s instructions.
4.2.1.5. Caspase-3 activation assay
Allow all reagents to reach room temperature before use. Gently mix all liquid reagents prior to use. Determine the number of 8-well strips needed for the assay. Insert these in the frame(s) for current use. Add 100 μl of the Standard Diluent Buffer to the zero standard wells. Well(s) reserved for chromogen blank should be left empty. Add 100 μl of standards and controls or diluted samples to the appropriate microtiter wells. The sample dilution chosen should be optimized for each experimental system. Tap gently on side of plate to mix. Cover wells with plate cover and incubate for 2 hours at room temperature. Thoroughly aspirate or decant solution from wells and discard the liquid, Wash wells 4 times. Pipette 100 μl of Caspase-3 (Active) Detection Antibody solution into each well except the chromogen blank(s). Tap gently on the side of the plate to mix. Cover plate with plate cover and incubate for 1 hour at room temperature. Thoroughly aspirate or decant solution from wells and discard the liquid, Wash wells 4 times. Add 100 μl Anti-Rabbit IgG HRP Working Solution to each well except the chromogen blank(s). Prepare the working dilution as described in Preparing IgG HRP. Cover wells with the plate cover and incubate for 30 minutes at room temperature. Thoroughly aspirate or decant solution from wells and discard the liquid. Wash wells 4 times. Add 100 μl of Stabilized Chromogen to each well. The liquid in the wells will begin to turn blue. Incubate for 30 minutes at room temperature and in the dark. The incubation time for chromogen substrate is often determined by the microtiter plate reader used. Many plate readers have the capacity to record a maximum optical density (O.D.) of 2.0. The O.D. values should be monitored, and the substrate reaction stopped before the O.D. of the positive wells exceeds the limits of the instrument. The O.D. values at 450 nm can only be read after the Stop Solution has been added to each well. If using a reader that records only to 2.0 O.D., stopping the assay after […]
Add 100 μl of Stop Solution to each well. Tap side of plate gently to mix. The solution in the wells should change from blue to yellow. Read the absorbance of each well at 450 nm having blanked the plate reader against a chromogen blank composed of 100 μl each of Stabilized Chromogen and Stop Solution. Read the plate within 2 hours after adding the Stop Solution. Use a curve fitting software to generate the standard curve. A four-parameter algorithm provides the best standard curve fit. Read the concentrations for unknown samples and controls from the standard curve. Multiply value(s) obtained for sample(s) by the appropriate dilution factor to correct for the dilution in step 3. Samples producing signals greater than that of the highest standard should be diluted in Standard Diluent Buffer and reanalyzed. […]
Tubulin.). The absorbance of each microwell was read on a spectro-photometer at 450 nm. A standard curve is prepared from 7human Caspase-8 standard dilutions and human Caspase-8 concentration determined.
4.2.1.7. Bax activation assay

Bax = Bax level assay in MCF-7; assay type: cell-based, human; details: for Bax Fold change: MCF-7, versus untreated control; for Bax Conc.: MCF-7 cancer cell line
Method: Compounds 8g and 8h were evaluated as caspase-3, 8 and Bax activators and as down-regulator of the anti-apoptotic protein Bcl2 against the MCF-7 breast cancer cell line.[40] Appendix A ^† contains more details. […]
Bring all reagents, except the human Bax-α Standard, to room temperature for at least 30 minutes prior to opening. The human Bax-α Standard solution should not be left at room temperature for more than 10 minutes. All standards, controls and samples should be run in duplicate. Refer to the Assay Layout Sheet to determine the number of wells to be used and put any remaining wells with the desiccant back into the pouch and seal the ziploc. Store unused wells at 4 °C. Pipet 100 μL of Assay Buffer into the S0 (0 pg/mL standard) wells. Pipet 100 μL of Standards #1 through #6 into the appropriate wells. Pipet 100 μL of the Samples into the appropriate wells. Tap the plate gently to mix the contents. Seal the plate and incubate at room temperature on a plate shaker for 1 hour at ~500 rpm. Empty the contents of the wells and wash by adding 400 μL of wash solution to every well. Repeat the wash 4 more times for a total of 5 washes. After the final wash, empty or aspirate the wells and firmly tap the plate on a lint free paper towel to remove any remaining wash buffer.
Pipet 100 μL of yellow Antibody into each well, except the Blank. Seal the plate and incubate at room temperature on a plate shaker for 1 hour at ~500 rpm. Empty the contents of the wells and wash by adding 400 μL of wash solution to every well. Repeat the wash 4 more times for a total of 5 washes. After the final wash, empty or aspirate the wells and firmly tap the plate on a lint free paper towel to remove any remaining wash buffer. Add 100 μL of blue Conjugate to each well, except the Blank. Seal the plate and incubate at room temperature on a plate shaker for 30 minutes […]
Pipet 100 μL of Substrate Solution into each well. Incubate for 30 minutes at room temperature on a plate shaker at ~500 rpm. Pipet 100 μL Stop Solution to each well. Blank the plate reader against the Blank wells, read the optical density at 450 nm. Calculate the average net Optical Density (OD) bound for each standard and sample by subtracting the average Blank OD from the average OD for each standard and sample. Using linear graph paper, plot the Average Net OD for each standard versus Bax concentration in each standard. Approximate a straight line through the points.
The concentration of Bax in the unknowns can be determined by interpolation. […]
Remove plate cover and empty the wells. […]
Incubate the microwell strips at room temperature (18° to 25°C) for about 15 minutes, if available on a rotator set at 100 rpm.

breast cancer (MCF-7) = assay: Antiproliferative MTT assay, MCF-7; assay type: cell-based; details: Homo sapiens, MCF7, MCF-7 breast cancer cells, read-out: Antiproliferative activity IC50 ± SEM, MCF-7
Method: (§1) The median inhibitory concentration (IC50) and GI50 (mean IC50) for the four cancer cell lines were calculated. Appendix A ^† contains more details. […]

lung cancer (A-549) = assay: Antiproliferative MTT assay, A-549; assay type: cell-based; details: Homo sapiens, A549, A-549 lung cancer cells, read-out: Antiproliferative activity IC50 ± SEM, A-549
Method: as §1

[1] = system: four human cancer cell lines (A-549, MCF-7, Panc-1, HT-29); assay: Antiproliferative MTT assay, mean over the four cancer cell lines; assay type: cell-based; details: Homo sapiens, mean IC50 over A-549, MCF-7, Panc-1, HT-29
Method: as §1

Row | IC50 (breast cancer (MCF-7)) [nM] | IC50 (lung cancer (A-549)) [nM] | GI50 [1] [nM] | Compound | Caspase-3 Fold change (Caspase-3) | Caspase-3 Conc. (Caspase-3) [pg/mL] | Bax Fold change (Bax) | Bax Conc. (Bax) | Bax Conc. (Bax; listed as staurosporine) [pg/mL]
1 |  |  |  | CN[C@@H]1C[C@H]2O[C@@](C)([C@@H]1OC)n1c3ccccc3c3c4c(c5c6ccccc6n2c5c31)C(=O)NC4 [Staurosporine, reference compound] | 8 | 503 ± 4 | 35 | 280 ± 7 pg/mL | 280
2 | 20 ± 1 | 22 ± 1 | 22 | COc1ccc(-n2cc(CSc3nc4ccccc4c(=O)n3-c3ccc(C)cc3)nn2)cc1 [Compound 8g, 2-(((1-(4-Methoxyphenyl)-1H-1,2,3-triazol-4-yl)methyl)thio)-3-(p-tolyl)quinazolin-4(3H)-one] | 11 | 695 ± 5 | 39 | 315 pg/mL and 315 ± 9 pg/mL | 
3 | 22 ± 1 | 25 ± 1 | 25 | Cc1ccc(-n2cc(CSc3nc4ccccc4c(=O)n3-c3ccc(C)cc3)nn2)cc1 [Compound 8h, 2-(((1-(p-Tolyl)-1H-1,2,3-triazol-4-yl)methyl)thio)-3-(p-tolyl)quinazolin-4(3H)-one] | 10 | 650 ± 5 | 37 | 295 pg/mL and 295 ± 9 pg/mL | 
